Measurements reported in patent US8226943B2, “Antibodies to notch receptors” (OncoMed Pharmaceuticals, Inc., priority 2008, dated 2012).

What was measured:
[1] = test system: Colo-205 colon tumor cells; assay: Colo-205 colon tumor xenograft growth; type: in vivo, mice; conditions: for Colo205 Tumor vol relative to the control group: 15 mg/kg once per week; for growth of Colo205 colon tumors: 15 mg/kg once per week after tumors established
Procedure: In one experiment, the 1×10^7 viable Colo-205 colon tumor cells were injected into 6-8 week-old immunodeficient bg/nu XID female mice on a Swiss CD-1 background. Tumors were allowed to grow to a size of between 65 to 200 mm^3 after which mice were randomized (n=10 per experimental group), and antibodies administration begun. Animals were treated with 15 mg/kg of either control 1B7.11 antibodies or anti-Notch2/3 59R1 antibodies once weekly. Tumor size was measured twice weekly, and tumor volume was calculated as described (see Michieli et al., 2004, Cancer Cell, 6:61-73).
The 59R1 IgG2 antibody was also tested in vivo in the breast tumor xenograft lines OMP-B34, OMP-B39, OMP-B44, PE13, and UM-T1, the pancreas tumor xenograft line OMP-PN8, and the colon tumor xenograft line OMP-C8. These tumor xenograft lines were established by adhering to procedures described in Al-Hajj et al., 2003, Proc. Natl. Acad. Sci. USA, 100:3983-3988. Female NOD/SCID immuno-compromised mice 7-10 weeks old were used for the establishment of the breast tumor xenografts and male NOD/SCID mice were used for the OMP-Pn8 and OMP-C8 tumor-models (Harlan, Indianapolis, Ind.). The 59R1 IgG2 antibody was also tested in vivo in a Colo-205 colon tumor xenograft model. Female immunodeficient bg/nu XID mice on a Swiss CD-1 background were used for the Colo-205 xenograft tumor model. In case of the breast cancer models, slow-releasing estrogen pellets (0.36 mg) had to be implanted. Mice were subcutaneously injected on the right flank with 50,000 (OMP-B34, OMP-B39, OMP-B44, PE13, and UM-T1) or 1×10^7 (Colo-205) viable cells, respectively, in a mixture of PBS (without magnesium or calcium) and Matrigel at a 1:1 ratio. The injected total volume per mouse was 200 μl with 50% being Matrigel. Once the tumor had reached a size between 65-200 mm^3, the mice were randomized. Antibodies were administered weekly and tumors measured twice weekly. LZ1 (a human antibody that recognizes lyzozyme) or 1B711 (a murine IgG1 antibody that recognizes the hapten trinitrophenol) was used as a control antibody for treatment of each tumor type. Tumor volume was calculated as described Al-Hajj et al. (2003). Data are expressed as the mean and the mean±S.E.M. Group means were compared using Student's two-tailed, unpaired t-test. […] All statistical analysis was performed using Microsoft EXCEL and Graph Pad PRISM.
In another embodiment, NOD/SCID mice were injected with Colo205 colon tumor cells. The mice were treated with anti-Notch2/3 antibody 59R1, anti-Notch2/3 antibody 59R5 or control antibody. Antibodies were dosed at 15 mg/kg once per week after tumors had been established.
Tumor volumes and p values for each experiment are shown relative to the control group. The PE13, C28 and Colo205 studies were carried out as described in Example 14. PN8 studies were carried out as described above. For the PN8 experiment, the control is gemcitabine alone and values for 59R1 and 59R5 are the combinations with gemcitabine. Antibodies were dosed once per week at 15 mg/kg for all experiments.

[2] = molecular target: T1, human Notch1 (Homo sapiens, UniProt P46531); assay: FACS binding to transiently transfected HEK-293 cells, human Notch1
T1 construct: expressed in transfected cells; host or cells: HEK-293, transient, co-transfected with GFP
Procedure: The ability of the 59R1 IgG2 antibody to cross-react with other Notch receptors was determined by FACS assay using HEK-293 cells transiently transfected with the human Notch1, Notch2, Notch3 or Notch4 expression plasmid and green fluorescent protein (GFP) as a transfection control. GFP positive cells indicated expression of the transgene. The 59R1 IgG2 was added to the cells at 2 μg/ml and detected by PE-conjugated goat anti-human Fc gamma specific (Jackson Immunochemicals). All Notch constructs were full length.
The binding epitope of 59R5 was determined. As was described in Example 3 for analysis of antibody 59R1, several point mutants were created within full-length Notch1, converting residues within EGF10 to the corresponding amino acids in human Notch 2. Mutants in full-length Notch sequences were generated by QuikChange® mutagenesis (Stratagene) and verified by sequencing. HEK 293 cells were transiently transfected with expression vectors encoding human Notch2, human Notch1, or human Notch1 with residues 382-386 mutated to the corresponding human Notch2 residues. Cells were also co-transfected with a plasmid encoding green fluorescent protein (GFP) to mark those cells that received transfected plasmid. […] 59R1 and 59R5 were detected by PE-conjugated goat anti-human Fc gamma specific antibody (Jackson Immunochemicals, #109-116-170). […]

[3] = molecular target: T2, hNotch1 (Homo sapiens, UniProt P46531); assay: Biacore affinity, human Notch1; type: binding; conditions: Table 6, Biacore; read-out: IgG Dissociation Constant (KD) h-Notch1
T2 construct: recombinant human and mouse Notch proteins (EGF10-15 for Notch1, 2, & 4; EGF9-14 for Notch3) were immobilized on a CM5 chip
Procedure: The affinities for human and mouse Notch1, Notch2, Notch3, and Notch4 were determined using a Biacore 2000 instrument. Briefly, recombinant human and mouse Notch proteins (EGF10-15 for Notch1, 2, & 4; EGF9-14 for Notch3) were immobilized on a CM5 chip using standard amine based chemistry (NHS/EDC). For hNotch2, EGF1-12 was also tested for binding. Different antibody concentrations (1-100 nM) were injected over the protein surfaces and kinetic data were collected over time. The data was fit using the simultaneous global fit equation to yield dissociation constants (KD, nM) for each Notch (Table 3).
The sequences of the heavy chain and light chain are provided in SEQ ID NO: 49 and SEQ ID NO:18, respectively. The heavy chain variable region is provided in SEQ ID NO:50 and the light chain variable region is provide SEQ ID NO:13. The heavy chain CDR3 sequence of 59R5 comprises SIFYTT, SEQ ID NO:51. The other CDR sequences of 59R5 are identical to 59R1. […] Both antibodies bind human and murine Notch2 and Notch3 receptors with sub-nanomolar affinity (see Table 6).

[4] = established tumors, 15 mg/kg once a week

T2 sequence (P46531 372-601 limits assumed): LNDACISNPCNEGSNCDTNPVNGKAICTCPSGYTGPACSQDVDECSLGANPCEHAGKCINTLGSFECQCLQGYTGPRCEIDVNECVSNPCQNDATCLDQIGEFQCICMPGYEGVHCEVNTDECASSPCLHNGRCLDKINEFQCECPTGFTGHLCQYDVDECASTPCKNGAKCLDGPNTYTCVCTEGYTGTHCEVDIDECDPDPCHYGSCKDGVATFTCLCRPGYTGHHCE
T1 sequence (P46531 19-2555): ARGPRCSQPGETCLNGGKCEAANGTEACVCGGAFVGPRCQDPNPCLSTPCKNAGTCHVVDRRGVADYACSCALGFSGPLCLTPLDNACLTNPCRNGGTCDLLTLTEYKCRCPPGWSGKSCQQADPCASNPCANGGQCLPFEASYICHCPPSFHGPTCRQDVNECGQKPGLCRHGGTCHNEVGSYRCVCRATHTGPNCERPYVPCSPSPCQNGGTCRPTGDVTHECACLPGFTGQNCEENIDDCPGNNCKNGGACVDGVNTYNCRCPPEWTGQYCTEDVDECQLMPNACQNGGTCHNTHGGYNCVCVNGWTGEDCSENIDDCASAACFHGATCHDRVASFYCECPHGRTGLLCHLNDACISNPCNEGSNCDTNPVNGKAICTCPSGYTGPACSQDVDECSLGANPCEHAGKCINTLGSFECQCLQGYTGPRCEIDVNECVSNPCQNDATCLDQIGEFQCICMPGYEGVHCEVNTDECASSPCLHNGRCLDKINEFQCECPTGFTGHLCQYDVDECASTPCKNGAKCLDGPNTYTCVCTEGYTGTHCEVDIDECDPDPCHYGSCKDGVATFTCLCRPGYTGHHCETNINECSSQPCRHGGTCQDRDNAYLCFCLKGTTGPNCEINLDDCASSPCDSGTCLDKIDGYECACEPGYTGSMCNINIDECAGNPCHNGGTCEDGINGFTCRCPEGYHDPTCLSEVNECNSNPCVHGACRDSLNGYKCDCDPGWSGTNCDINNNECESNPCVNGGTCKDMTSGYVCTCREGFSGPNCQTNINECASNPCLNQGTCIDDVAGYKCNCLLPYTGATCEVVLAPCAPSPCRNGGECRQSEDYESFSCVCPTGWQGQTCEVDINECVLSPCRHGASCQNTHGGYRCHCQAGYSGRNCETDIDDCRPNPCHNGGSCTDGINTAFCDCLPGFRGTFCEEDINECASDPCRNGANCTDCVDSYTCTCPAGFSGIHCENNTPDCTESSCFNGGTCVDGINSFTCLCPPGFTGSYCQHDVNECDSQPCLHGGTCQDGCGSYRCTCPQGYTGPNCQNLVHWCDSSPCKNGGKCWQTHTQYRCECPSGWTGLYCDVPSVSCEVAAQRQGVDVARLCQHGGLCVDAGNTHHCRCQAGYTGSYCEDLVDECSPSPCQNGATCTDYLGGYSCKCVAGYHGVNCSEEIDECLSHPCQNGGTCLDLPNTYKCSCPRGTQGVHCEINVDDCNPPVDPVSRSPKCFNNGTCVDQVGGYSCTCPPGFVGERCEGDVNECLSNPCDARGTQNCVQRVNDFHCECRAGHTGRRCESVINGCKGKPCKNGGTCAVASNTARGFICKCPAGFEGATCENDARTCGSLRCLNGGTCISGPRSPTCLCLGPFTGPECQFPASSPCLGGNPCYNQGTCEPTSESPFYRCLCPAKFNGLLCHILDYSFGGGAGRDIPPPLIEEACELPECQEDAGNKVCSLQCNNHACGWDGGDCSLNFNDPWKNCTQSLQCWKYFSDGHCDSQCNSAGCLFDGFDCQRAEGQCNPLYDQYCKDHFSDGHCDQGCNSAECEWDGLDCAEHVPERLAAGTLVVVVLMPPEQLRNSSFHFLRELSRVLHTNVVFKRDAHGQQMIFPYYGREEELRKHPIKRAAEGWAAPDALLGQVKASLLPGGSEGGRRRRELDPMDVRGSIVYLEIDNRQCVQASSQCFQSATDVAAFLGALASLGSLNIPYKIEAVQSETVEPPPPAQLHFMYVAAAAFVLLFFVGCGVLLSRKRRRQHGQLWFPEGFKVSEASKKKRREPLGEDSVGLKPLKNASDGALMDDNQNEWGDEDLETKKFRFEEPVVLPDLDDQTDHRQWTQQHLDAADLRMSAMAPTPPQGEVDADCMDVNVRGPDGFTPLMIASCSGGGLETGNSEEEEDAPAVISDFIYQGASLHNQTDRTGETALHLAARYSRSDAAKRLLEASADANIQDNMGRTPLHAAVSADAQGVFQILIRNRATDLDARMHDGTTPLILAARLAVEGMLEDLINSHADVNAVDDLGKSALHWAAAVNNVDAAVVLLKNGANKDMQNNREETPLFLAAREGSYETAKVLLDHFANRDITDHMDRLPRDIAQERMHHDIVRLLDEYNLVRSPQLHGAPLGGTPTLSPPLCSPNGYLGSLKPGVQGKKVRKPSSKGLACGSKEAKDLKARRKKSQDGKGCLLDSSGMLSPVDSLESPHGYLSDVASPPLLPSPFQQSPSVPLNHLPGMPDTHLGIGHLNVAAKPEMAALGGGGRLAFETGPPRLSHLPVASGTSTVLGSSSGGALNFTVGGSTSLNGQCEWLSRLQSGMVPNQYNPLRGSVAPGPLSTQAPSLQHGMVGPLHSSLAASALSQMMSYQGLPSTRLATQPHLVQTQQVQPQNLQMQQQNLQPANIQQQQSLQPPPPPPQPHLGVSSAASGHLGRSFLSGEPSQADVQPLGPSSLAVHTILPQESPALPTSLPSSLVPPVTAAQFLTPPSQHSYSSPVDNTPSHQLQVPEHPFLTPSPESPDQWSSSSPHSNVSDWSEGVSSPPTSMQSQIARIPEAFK

Row | Substance | Colo205 Tumor vol relative to the control group [1] | growth of Colo205 colon tumors [1] | Colo205 tumor growth, combination of 59R1 plus bevacizumab (AVASTIN) versus either alone [1, 4] | Colo205 tumor growth, monotherapy relative to control antibody (LZ1) [1, 4] | Colo-205 tumor growth compared to control ([1]; established tumors, 15 mg/kg once weekly, control 1B7.11) | binding to full-length human Notch1 (FACS) [2] | Kd [3]
1 | 59R1: human IgG2 antibody binding Notch2 and Notch3; heavy and light chain SEQ ID NO:16 and 18; ATCC PTA-9547 | 0.68 | inhibited | even greater inhibition of tumor growth | significantly inhibited growth | significantly reduced | does not bind significantly | > 10 nM
2 | 59R5: human antibody that specifically binds human Notch 2 and human Notch 3; heavy and light chain SEQ ID NO:49 and 18; ATCC PTA-10170 | 0.61 | inhibited |  |  |  | did not bind | > 10 nM
